Test results taken from patent US9993494B2, “Compositions and methods for treating fibrotic disease” (eFFECTOR Therapeutics, Inc., priority 2014, dated 2018).

System: normal human lung fibroblasts
Assay: Ribosomal profiling: translational efficiency in TGFβ-treated fibroblasts
Type: cell-based
Conditions: TGFβ-treated fibroblasts
Procedure, shortened: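 Cells lysed on ice after a cold PBS wash containing cycloheximide. Ribosome-protected fragments and total mRNA were prepared with the ARTseq kit and sequenced by RNA-Seq. Reads were trimmed, mapped to the human genome and counted uniquely over coding regions per gene, with low-count genes excluded before differential translational-efficiency analysis.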

CC(C)n1nc(-c2cc3cc(O)ccc3[nH]2)c2c(N)ncnc21 [PP242]
+++ (+++ = >2.0): renormalizing the translational profile of FMO2 (ENSG00000094963)
+ (+ = 0.9 to 1.5): renormalizing the translational profile of EIF4B (ENSG00000063046) | renormalizing the translational profile of RPL18 (ENSG00000063177) | renormalizing the translational profile of ASPM (ENSG00000066279) | renormalizing the translational profile of RPL31 (ENSG00000071082) | renormalizing the translational profile of P2RX7 (ENSG00000089041) | renormalizing the translational profile of EIF3E (ENSG00000104408) | renormalizing the translational profile of GLTSCR2 (ENSG00000105373) | renormalizing the translational profile of RAB3D (ENSG00000105514) | renormalizing the translational profile of RPL18A (ENSG00000105640) | renormalizing the translational profile of GLCCI1 (ENSG00000106415) | renormalizing the translational profile of GAPDH (ENSG00000111640) | renormalizing the translational profile of IFIH1 (ENSG00000115267) | renormalizing the translational profile of RPL5 (ENSG00000122406) | renormalizing the translational profile of MTUS1 (ENSG00000129422) | renormalizing the translational profile of BIVM (ENSG00000134897) | renormalizing the translational profile of ATP5G2 (ENSG00000135390) | renormalizing the translational profile of HNRNPA1 (ENSG00000135486) | renormalizing the translational profile of HIGD2A (ENSG00000146066) | renormalizing the translational profile of C9orf85 (ENSG00000155621) | renormalizing the translational profile of EEF1A1 (ENSG00000156508)
++ (++ = 1.5 to 2.0): renormalizing the translational profile of FGF5 (ENSG00000138675)
− (− = <0.9): renormalizing the translational profile of DNASE1L1 (ENSG00000013563) | renormalizing the translational profile of ADAMTS6 (ENSG00000049192) | renormalizing the translational profile of LETMD1 (ENSG00000050426) | renormalizing the translational profile of PLEKHA5 (ENSG00000052126) | renormalizing the translational profile of HIPK2 (ENSG00000064393) | renormalizing the translational profile of RASSF1 (ENSG00000068028) | renormalizing the translational profile of PABPC1 (ENSG00000070756) | renormalizing the translational profile of PLD1 (ENSG00000075651) | renormalizing the translational profile of EDN1 (ENSG00000078401) | renormalizing the translational profile of AURKA (ENSG00000087586) | renormalizing the translational profile of EPB41L1 (ENSG00000088367) | renormalizing the translational profile of RPL6 (ENSG00000089009) | renormalizing the translational profile of RPLP0 (ENSG00000089157) | renormalizing the translational profile of IGBP1 (ENSG00000089289) | renormalizing the translational profile of IRAK3 (ENSG00000090376) | renormalizing the translational profile of PABPC4 (ENSG00000090621) | renormalizing the translational profile of ACOT7 (ENSG00000097021) | renormalizing the translational profile of ATP5D (ENSG00000099624) | renormalizing the translational profile of LGALS1 (ENSG00000100097) | renormalizing the translational profile of EIF3L (ENSG00000100129) | renormalizing the translational profile of RPL3 (ENSG00000100316) | renormalizing the translational profile of CEP192 (ENSG00000101639) | renormalizing the translational profile of AMMECR1 (ENSG00000101935) | renormalizing the translational profile of PLP2 (ENSG00000102007) | renormalizing the translational profile of EEF1D (ENSG00000104529) | renormalizing the translational profile of C19orf53 (ENSG00000104979) | renormalizing the translational profile of COMP (ENSG00000105664) | renormalizing the translational profile of CORO2A (ENSG00000106789) | renormalizing the translational profile of GDF10 (ENSG00000107623) | renormalizing the translational profile of RPL28 (ENSG00000108107) | renormalizing the translational profile of RPL19 (ENSG00000108298) | renormalizing the translational profile of RASD1 (ENSG00000108551) | renormalizing the translational profile of NAT9 (ENSG00000109065) | renormalizing the translational profile of RPL34 (ENSG00000109475) | renormalizing the translational profile of CRYAB (ENSG00000109846) | renormalizing the translational profile of C12orf57 (ENSG00000111678) | renormalizing the translational profile of MDFI (ENSG00000112559) | renormalizing the translational profile of HBEGF (ENSG00000113070) | renormalizing the translational profile of RPL24 (ENSG00000114391) | renormalizing the translational profile of EEF1B2 (ENSG00000114942) | renormalizing the translational profile of DPH5 (ENSG00000117543) | renormalizing the translational profile of PPL (ENSG00000118898) | renormalizing the translational profile of PLEKHG1 (ENSG00000120278) | renormalizing the translational profile of LIAS (ENSG00000121897) | renormalizing the translational profile of GPSM2 (ENSG00000121957) | renormalizing the translational profile of RPL21 (ENSG00000122026) | renormalizing the translational profile of INHBA (ENSG00000122641) | renormalizing the translational profile of CIT (ENSG00000122966) | renormalizing the translational profile of RPL23 (ENSG00000125691) | renormalizing the translational profile of LAMP5 (ENSG00000125869) | renormalizing the translational profile of NECAB3 (ENSG00000125967) | renormalizing the translational profile of COX7C (ENSG00000127184) | renormalizing the translational profile of LIF (ENSG00000128342) | renormalizing the translational profile of ARHGEF6 (ENSG00000129675) | renormalizing the translational profile of RPL36 (ENSG00000130255) | renormalizing the translational profile of GDF15 (ENSG00000130513) | renormalizing the translational profile of ASS1 (ENSG00000130707) | renormalizing the translational profile of EIF2S3 (ENSG00000130741) | renormalizing the translational profile of RPL27 (ENSG00000131469) | renormalizing the translational profile of MATN3 (ENSG00000132031) | renormalizing the translational profile of PPARG (ENSG00000132170) | renormalizing the translational profile of RARRES3 (ENSG00000133321) | renormalizing the translational profile of KRT7 (ENSG00000135480) | renormalizing the translational profile of IL6 (ENSG00000136244) | renormalizing the translational profile of RPL35 (ENSG00000136942) | renormalizing the translational profile of NOV (ENSG00000136999) | renormalizing the translational profile of IER3 (ENSG00000137331) | renormalizing the translational profile of DDX60 (ENSG00000137628) | renormalizing the translational profile of RPLP1 (ENSG00000137818) | renormalizing the translational profile of PAQR5 (ENSG00000137819) | renormalizing the translational profile of AOX1 (ENSG00000138356) | renormalizing the translational profile of PDE5A (ENSG00000138735) | renormalizing the translational profile of GAS2L3 (ENSG00000139354) | renormalizing the translational profile of DIAPH3 (ENSG00000139734) | renormalizing the translational profile of MYO19 (ENSG00000141140) | renormalizing the translational profile of RPL13A (ENSG00000142541) | renormalizing the translational profile of RPL11 (ENSG00000142676) | renormalizing the translational profile of ACTA1 (ENSG00000143632) | renormalizing the translational profile of PLEKHA6 (ENSG00000143850) | renormalizing the translational profile of RPL32 (ENSG00000144713) | renormalizing the translational profile of RPL37 (ENSG00000145592) | renormalizing the translational profile of BTF3 (ENSG00000145741) | renormalizing the translational profile of CREB5 (ENSG00000146592) | renormalizing the translational profile of DENND2A (ENSG00000146966) | renormalizing the translational profile of RPL10 (ENSG00000147403) | renormalizing the translational profile of EIF3H (ENSG00000147677) | renormalizing the translational profile of RPL7A (ENSG00000148303) | renormalizing the translational profile of EIF3M (ENSG00000149100) | renormalizing the translational profile of JPH2 (ENSG00000149596) | renormalizing the translational profile of FAU (ENSG00000149806) | renormalizing the translational profile of CCDC102B (ENSG00000150636) | renormalizing the translational profile of FRMD4A (ENSG00000151474) | renormalizing the translational profile of HOMER1 (ENSG00000152413) | renormalizing the translational profile of PLEKHH2 (ENSG00000152527) | renormalizing the translational profile of ANKH (ENSG00000154122) | renormalizing the translational profile of ABCA6 (ENSG00000154262) | renormalizing the translational profile of OBSCN (ENSG00000154358) | renormalizing the translational profile of ADAMTS5 (ENSG00000154736) | renormalizing the translational profile of OXA1L (ENSG00000155463) | renormalizing the translational profile of RPL30 (ENSG00000156482) | renormalizing the translational profile of NRG1 (ENSG00000157168) | renormalizing the translational profile of ADAMTS4 (ENSG00000158859) | renormalizing the translational profile of RPL8 (ENSG00000161016) | renormalizing the translational profile of RPL26 (ENSG00000161970) | renormalizing the translational profile of RPL29 (ENSG00000162244) | renormalizing the translational profile of CAMK2N1 (ENSG00000162545) | renormalizing the translational profile of IGFBP7 (ENSG00000163453) | renormalizing the translational profile of RPL22L1 (ENSG00000163584) | renormalizing the translational profile of RPL9 (ENSG00000163682)
